System: bovine sperm
Test: Effect of creatine concentration on sorting of X and Y sperm in sorting solution with 24e drug (Example 2)
Assay type: cell-based
Details: creatine 500 μM with 24e drug 0.3 μM; 37° C., 60 min; 6x107 sperm/mL
Experimental: Based on the exploration in Example 1 that the range of 0.27 μM-0.33 μM is the optimal concentration range for the 24e drug to sort bovine sperm, the effect of creatine on the sperm sorting effect was examined by incubating bovine sperm with creatine added to the sorting solution with a 24e drug concentration of 0.3 μM.
Fresh bovine semen provided by the Grassland Livestock Germplasm Innovation and Breeding Base of Inner Mongolia University was used, washed with in vitro fertilization solution, and after dilution, the sperm density was 6x107 sperm/mL. At 37° C., the 24e drug was added to the sperm sorting protection solution to make the final concentration of the 24e drug 0.3 μM. On this basis, creatine was added, and bovine sperm was incubated for 60 min. The amounts of creatine used were 0 μM (control group), 200 μM, 300 μM, 400 μM, 500 µM, and 600 μM. The sorting effect of sperm at each creatine concentration was obtained by analyzing the sperm in the upper and lower layers, as shown in FIG. 2. […] In the upper layer of sperm, the percentage of X sperm is 22%, and the percentage of Y sperm is 78%. Creatine can enhance the activity of sperm, so that Y sperm floats up faster, while the activity of X sperm is inhibited by the 24e drug and sinks, making the stratification more obvious and improving the sorting efficiency. When the sperm density is 6x10^7 sperm/mL, the concentration of the 24e drug is 0.27 μM-0.33 μM, and the creatine concentration is 500 μM-600 μM, the sorting effect on bovine sperm is the best.

CN(CC(=O)O)C(=N)N [creatine]
percentage of X sperm in the lower layer of sorted sperm: 70.33%
percentage of X sperm in the upper layer of sperm: 22%
percentage of Y sperm in the lower layer of sorted sperm: 29.67%
percentage of Y sperm in the upper layer of sperm: 78%

From patent US20250354111A1, “BOVINE SEX-SORTED SPERM SORTING SOLUTION MEDIATED BY SMALL MOLECULE COMPOUND AND ITS APPLICATION” (Inner Mongolia University, priority 2024, published 2025)
